Data: publication PMC10528299, “Targeting FAK/PYK2 with SJP1602 for Anti-Tumor Activity in Triple-Negative Breast Cancer” (Current Issues in Molecular Biology, 2023)

Key:
Test in all cases: Eurofins kinase profiling
Assay type in all cases: biochemical
[1] = target: T1, Bmx(h) (Homo sapiens, UniProt P51813); conditions: read-out: residual kinase activity Bmx(h)
T1 construct: purchased Eurofins KinaseProfiler
T1 sequence (P51813 1-675): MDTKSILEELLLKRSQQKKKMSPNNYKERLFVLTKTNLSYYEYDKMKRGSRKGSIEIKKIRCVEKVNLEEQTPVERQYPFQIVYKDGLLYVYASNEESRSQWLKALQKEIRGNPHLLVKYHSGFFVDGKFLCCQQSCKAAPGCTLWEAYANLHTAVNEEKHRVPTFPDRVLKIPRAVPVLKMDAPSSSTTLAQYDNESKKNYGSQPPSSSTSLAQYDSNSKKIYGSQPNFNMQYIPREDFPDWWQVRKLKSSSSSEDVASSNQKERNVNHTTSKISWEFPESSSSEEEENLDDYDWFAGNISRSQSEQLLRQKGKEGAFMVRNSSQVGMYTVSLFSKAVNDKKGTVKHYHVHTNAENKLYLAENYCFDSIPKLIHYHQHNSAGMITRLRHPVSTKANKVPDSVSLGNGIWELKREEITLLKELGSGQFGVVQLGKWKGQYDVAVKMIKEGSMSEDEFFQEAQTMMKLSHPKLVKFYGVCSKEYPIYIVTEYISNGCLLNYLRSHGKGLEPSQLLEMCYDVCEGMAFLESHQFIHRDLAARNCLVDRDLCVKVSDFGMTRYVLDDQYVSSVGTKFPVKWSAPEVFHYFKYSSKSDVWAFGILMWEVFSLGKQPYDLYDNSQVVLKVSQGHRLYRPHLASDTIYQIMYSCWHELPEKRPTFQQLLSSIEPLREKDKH
Summary of the method: (§1)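 Each kinase is incubated with compound (1 µM). Activity is then determined radiometrically from transfer of labeled phosphate.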

[2] = target: T2, PKD2(h) (Homo sapiens, UniProt Q9BZL6); conditions: read-out: residual kinase activity PKD2(h)
T2 construct: purchased Eurofins KinaseProfiler
T2 sequence (Q9BZL6 1-878): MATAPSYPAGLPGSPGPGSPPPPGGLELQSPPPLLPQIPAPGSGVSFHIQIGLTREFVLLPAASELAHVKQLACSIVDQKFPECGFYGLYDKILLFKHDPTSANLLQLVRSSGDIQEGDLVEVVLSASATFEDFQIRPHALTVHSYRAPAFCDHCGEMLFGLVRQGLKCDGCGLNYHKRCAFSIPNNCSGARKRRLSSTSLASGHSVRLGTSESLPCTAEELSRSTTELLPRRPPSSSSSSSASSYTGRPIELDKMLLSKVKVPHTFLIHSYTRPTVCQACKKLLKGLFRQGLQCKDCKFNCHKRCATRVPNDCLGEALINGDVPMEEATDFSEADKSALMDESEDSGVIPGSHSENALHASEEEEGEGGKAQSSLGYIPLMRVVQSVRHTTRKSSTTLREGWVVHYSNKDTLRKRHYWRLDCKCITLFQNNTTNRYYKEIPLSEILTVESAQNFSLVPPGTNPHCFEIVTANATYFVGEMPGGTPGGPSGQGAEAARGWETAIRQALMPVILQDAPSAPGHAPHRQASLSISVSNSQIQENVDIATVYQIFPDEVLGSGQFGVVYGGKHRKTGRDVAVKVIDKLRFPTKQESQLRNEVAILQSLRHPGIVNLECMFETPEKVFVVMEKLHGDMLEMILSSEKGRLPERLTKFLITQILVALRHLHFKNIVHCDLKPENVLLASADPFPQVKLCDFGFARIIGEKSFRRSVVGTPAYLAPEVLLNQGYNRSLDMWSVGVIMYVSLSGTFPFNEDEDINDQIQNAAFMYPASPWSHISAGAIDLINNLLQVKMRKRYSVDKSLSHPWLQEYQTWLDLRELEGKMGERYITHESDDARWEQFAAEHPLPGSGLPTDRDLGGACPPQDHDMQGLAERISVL
Summary of the method: as §1

[3] = target: T3, cKit(D816H)(h) (Homo sapiens, UniProt P10721, D816H); conditions: read-out: residual kinase activity cKit(D816H)(h)
T3 construct: purchased Eurofins KinaseProfiler
T3 sequence (P10721 26-976 D816H): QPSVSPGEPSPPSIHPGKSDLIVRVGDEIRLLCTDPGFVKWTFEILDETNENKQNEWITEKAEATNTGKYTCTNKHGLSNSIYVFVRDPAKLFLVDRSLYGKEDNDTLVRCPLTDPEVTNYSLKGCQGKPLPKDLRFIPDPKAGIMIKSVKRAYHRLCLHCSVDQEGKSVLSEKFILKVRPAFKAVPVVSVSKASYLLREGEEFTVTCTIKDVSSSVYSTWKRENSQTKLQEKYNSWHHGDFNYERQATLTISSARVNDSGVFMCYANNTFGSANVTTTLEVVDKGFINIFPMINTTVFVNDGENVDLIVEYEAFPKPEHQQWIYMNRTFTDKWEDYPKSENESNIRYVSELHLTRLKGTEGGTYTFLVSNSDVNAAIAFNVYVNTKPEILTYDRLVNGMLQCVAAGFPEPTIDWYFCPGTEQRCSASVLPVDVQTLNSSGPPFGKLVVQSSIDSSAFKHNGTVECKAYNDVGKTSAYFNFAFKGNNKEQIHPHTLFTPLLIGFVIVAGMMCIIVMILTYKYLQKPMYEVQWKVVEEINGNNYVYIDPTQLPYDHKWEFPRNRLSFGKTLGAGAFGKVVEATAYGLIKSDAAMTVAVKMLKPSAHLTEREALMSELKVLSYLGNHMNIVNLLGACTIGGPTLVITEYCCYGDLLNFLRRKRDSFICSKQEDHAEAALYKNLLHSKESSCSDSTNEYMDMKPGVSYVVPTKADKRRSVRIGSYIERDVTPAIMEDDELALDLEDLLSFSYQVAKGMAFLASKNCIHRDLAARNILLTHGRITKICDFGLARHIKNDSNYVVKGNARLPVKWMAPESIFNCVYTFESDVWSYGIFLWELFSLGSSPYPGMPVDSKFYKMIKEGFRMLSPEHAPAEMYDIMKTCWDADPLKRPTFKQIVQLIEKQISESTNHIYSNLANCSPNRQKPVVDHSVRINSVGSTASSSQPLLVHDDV
Summary of the method: as §1

[4] = target: T4, IGF-1R(h) (Homo sapiens, UniProt P08069); conditions: read-out: residual kinase activity IGF-1R(h)
T4 construct: purchased Eurofins KinaseProfiler
Summary of the method: as §1

[5] = target: T5, FGFR1(h) (Homo sapiens, UniProt P11362); conditions: read-out: residual kinase activity FGFR1(h)
T5 construct: purchased Eurofins KinaseProfiler
T5 sequence (P11362 22-822): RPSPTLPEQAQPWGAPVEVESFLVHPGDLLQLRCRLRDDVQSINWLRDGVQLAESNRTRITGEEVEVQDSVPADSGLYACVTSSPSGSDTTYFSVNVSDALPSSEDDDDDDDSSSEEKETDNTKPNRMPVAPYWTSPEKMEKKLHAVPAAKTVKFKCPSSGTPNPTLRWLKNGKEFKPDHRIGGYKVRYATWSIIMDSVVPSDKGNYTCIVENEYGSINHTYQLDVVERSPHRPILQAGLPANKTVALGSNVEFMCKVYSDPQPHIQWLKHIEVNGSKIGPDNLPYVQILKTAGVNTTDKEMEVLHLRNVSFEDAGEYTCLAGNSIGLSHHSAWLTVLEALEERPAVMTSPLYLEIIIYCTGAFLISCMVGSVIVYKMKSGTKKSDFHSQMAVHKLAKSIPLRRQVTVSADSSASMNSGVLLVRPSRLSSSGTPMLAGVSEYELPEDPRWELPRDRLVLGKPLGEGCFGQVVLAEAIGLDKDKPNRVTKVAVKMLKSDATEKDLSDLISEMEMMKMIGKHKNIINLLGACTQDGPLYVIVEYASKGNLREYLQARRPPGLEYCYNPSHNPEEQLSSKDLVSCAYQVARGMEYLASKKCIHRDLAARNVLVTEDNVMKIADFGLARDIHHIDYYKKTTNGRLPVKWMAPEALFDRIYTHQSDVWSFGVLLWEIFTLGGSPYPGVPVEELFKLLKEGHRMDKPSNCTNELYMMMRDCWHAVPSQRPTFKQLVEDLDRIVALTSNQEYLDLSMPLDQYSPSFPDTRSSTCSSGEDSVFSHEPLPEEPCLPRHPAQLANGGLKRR
Summary of the method: as §1

[6] = target: T6, Ros(h) (Homo sapiens, UniProt P08922); conditions: read-out: residual kinase activity Ros(h)
T6 construct: purchased Eurofins KinaseProfiler
Summary of the method: as §1

[7] = target: T7, CK1γ3(h) (Homo sapiens, UniProt Q9Y6M4); conditions: read-out: residual kinase activity CK1γ3(h)
T7 construct: purchased Eurofins KinaseProfiler
Summary of the method: as §1

[8] = target: T8, CDK5/p35(h) (Homo sapiens, UniProt Q00535); conditions: read-out: residual kinase activity CDK5/p35(h)
T8 construct: purchased Eurofins KinaseProfiler
T8 sequence (Q00535 whole entry): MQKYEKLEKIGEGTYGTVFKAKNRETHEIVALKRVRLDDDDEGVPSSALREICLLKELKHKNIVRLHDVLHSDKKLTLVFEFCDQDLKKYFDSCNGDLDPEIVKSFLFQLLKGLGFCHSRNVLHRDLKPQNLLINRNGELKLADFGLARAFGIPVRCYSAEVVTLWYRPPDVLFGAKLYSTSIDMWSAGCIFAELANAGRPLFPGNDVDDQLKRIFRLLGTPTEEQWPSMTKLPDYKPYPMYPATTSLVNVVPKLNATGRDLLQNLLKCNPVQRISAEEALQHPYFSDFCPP
T8 sequence (Q15078 whole entry partner): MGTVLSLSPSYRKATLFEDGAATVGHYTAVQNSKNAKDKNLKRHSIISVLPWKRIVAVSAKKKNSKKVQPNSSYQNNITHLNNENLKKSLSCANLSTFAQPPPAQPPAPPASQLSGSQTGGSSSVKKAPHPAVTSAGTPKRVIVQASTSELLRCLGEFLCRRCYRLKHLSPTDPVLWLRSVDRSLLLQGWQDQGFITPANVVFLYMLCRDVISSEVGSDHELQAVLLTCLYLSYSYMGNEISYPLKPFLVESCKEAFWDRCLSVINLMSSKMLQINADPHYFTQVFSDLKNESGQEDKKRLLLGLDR
Summary of the method: as §1

[9] = target: T9, PI3 Kinase (p110d/p85a)(h) (Homo sapiens, UniProt O00329); conditions: read-out: residual kinase activity PI3 Kinase (p110d/p85a)(h)
T9 construct: purchased Eurofins KinaseProfiler
Summary of the method: as §1

[10] = target: T10, cKit(V560G)(h) (Homo sapiens, UniProt P10721, V560G); conditions: read-out: residual kinase activity cKit(V560G)(h)
T10 construct: purchased Eurofins KinaseProfiler
T10 sequence (P10721 26-976 V560G): as the sequence (P10721 26-976 D816H) above, with V535G, H791D counted along it
Summary of the method: as §1

[11] = target: T11, PKCη(h) (Homo sapiens, UniProt P24723); conditions: read-out: residual kinase activity PKCη(h)
T11 construct: purchased Eurofins KinaseProfiler
T11 sequence (P24723 whole entry): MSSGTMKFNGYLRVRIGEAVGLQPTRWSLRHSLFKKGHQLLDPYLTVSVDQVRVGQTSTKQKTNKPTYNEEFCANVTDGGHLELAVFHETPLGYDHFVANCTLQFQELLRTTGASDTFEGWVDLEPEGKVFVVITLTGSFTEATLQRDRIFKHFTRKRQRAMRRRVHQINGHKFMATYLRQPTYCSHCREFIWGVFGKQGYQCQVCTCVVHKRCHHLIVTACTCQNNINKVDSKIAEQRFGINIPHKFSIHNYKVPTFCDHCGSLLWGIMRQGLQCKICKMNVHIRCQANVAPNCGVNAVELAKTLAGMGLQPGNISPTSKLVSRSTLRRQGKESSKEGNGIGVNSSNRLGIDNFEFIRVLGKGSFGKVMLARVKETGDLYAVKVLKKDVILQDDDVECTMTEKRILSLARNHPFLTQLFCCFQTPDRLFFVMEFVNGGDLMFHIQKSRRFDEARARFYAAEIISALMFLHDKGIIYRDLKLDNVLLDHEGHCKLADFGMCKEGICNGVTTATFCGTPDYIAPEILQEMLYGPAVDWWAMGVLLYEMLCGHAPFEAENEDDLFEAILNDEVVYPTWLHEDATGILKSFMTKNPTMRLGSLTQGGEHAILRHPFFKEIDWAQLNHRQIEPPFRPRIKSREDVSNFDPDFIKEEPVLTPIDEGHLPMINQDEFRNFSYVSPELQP
Summary of the method: as §1

[12] = target: T12, Tie2 (h) (Homo sapiens, UniProt Q02763); conditions: read-out: residual kinase activity Tie2 (h)
T12 construct: purchased Eurofins KinaseProfiler
T12 sequence (Q02763 23-1124): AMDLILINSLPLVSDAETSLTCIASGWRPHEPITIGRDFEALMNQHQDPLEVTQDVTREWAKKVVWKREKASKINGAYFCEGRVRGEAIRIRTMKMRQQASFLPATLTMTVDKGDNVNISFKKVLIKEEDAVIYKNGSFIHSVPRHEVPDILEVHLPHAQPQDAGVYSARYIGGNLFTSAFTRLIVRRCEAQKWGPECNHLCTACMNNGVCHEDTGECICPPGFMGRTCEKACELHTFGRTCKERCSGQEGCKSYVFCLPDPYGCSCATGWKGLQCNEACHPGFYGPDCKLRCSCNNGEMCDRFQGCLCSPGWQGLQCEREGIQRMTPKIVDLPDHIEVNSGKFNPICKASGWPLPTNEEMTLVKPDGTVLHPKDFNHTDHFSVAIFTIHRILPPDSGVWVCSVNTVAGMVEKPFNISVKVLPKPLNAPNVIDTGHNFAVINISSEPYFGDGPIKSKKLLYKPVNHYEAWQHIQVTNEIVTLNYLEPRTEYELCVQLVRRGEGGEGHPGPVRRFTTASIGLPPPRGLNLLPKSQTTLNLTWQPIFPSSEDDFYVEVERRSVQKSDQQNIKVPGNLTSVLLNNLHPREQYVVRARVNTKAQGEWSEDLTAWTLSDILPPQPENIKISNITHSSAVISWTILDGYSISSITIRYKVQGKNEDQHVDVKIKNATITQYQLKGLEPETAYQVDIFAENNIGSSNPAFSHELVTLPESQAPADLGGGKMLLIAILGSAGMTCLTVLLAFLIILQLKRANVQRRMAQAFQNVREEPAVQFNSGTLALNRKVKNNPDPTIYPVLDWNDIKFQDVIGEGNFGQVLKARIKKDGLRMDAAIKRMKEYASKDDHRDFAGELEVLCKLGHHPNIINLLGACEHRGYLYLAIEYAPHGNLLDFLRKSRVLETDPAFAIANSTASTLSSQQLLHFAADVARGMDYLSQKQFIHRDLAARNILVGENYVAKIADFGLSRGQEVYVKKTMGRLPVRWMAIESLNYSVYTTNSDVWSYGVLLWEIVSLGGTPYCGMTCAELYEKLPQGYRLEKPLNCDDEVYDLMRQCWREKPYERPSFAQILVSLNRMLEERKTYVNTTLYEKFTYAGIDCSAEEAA
Summary of the method: as §1

[13] = target: T13, B-Raf(h) (Homo sapiens, UniProt P15056); conditions: read-out: residual kinase activity B-Raf(h)
T13 construct: purchased Eurofins KinaseProfiler
T13 sequence (P15056 whole entry): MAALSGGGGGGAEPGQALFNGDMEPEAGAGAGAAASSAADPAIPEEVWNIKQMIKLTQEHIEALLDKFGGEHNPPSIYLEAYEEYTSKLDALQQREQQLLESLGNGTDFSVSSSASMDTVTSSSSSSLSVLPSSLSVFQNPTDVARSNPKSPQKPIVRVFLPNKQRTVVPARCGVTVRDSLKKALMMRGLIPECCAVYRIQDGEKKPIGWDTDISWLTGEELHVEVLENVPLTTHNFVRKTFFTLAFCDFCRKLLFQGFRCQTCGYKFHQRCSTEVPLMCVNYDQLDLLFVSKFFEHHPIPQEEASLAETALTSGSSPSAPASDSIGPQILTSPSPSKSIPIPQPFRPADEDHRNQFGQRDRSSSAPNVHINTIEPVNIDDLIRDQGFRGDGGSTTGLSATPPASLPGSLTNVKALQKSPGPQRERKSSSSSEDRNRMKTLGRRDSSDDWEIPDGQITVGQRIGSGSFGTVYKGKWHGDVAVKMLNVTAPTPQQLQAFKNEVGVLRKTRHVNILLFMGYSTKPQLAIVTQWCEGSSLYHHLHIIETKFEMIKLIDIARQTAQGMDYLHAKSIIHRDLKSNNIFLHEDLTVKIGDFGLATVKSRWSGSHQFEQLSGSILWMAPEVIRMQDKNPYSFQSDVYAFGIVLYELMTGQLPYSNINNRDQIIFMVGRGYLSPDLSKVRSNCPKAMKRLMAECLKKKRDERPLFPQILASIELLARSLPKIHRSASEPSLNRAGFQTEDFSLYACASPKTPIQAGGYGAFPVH
Summary of the method: as §1

[14] = target: T14, Fes(h) (Homo sapiens, UniProt P07332); conditions: read-out: residual kinase activity Fes(h)
T14 construct: purchased Eurofins KinaseProfiler
Summary of the method: as §1

[15] = target: T15, CSK(h) (Homo sapiens, UniProt P41240); conditions: read-out: residual kinase activity CSK(h)
T15 construct: purchased Eurofins KinaseProfiler
Summary of the method: as §1

| remaining activity at 1 µM [1] | remaining activity at 1 µM [2] | remaining activity at 1 µM [3] | remaining activity at 1 µM [4] | remaining activity at 1 µM [5] | remaining activity at 1 µM [6] | remaining activity at 1 µM [7] | remaining activity at 1 µM [8] | remaining activity at 1 µM [9] | remaining activity at 1 µM [10] | remaining activity at 1 µM [11] | remaining activity at 1 µM [12] | remaining activity at 1 µM [13] | remaining activity at 1 µM [14] | remaining activity at 1 µM [15] | SMILES |
| --- | --- | --- | --- | --- | --- | --- | --- | --- | --- | --- | --- | --- | --- | --- | --- |
| 47% | 116% | 94% | 55% | 43% | 106% | 84% | 10% | 88% | 74% | 104% | 82% | 83% | 7% | 88% | CNC(=O)c1ccc(Nc2ncc(C(F)(F)F)c(NCc3nccnc3N(C)S(C)(=O)=O)n2)cc1 [VS-6063, Defactinib] |
| 105% | 90% | 98% | 115% | 109% | 103% | 95% | 94% | 115% | 104% | 97% | 108% | 99% | 49% | 92% | CONC(=O)c1ccccc1Nc1cc(Nc2cc(C)nn2C(C)C)ncc1Cl [GSK2256098] |

| SMILES | remaining activity at 1 µM [1] | remaining activity at 1 µM [2] | remaining activity at 1 µM [3] | remaining activity at 1 µM [4] | remaining activity at 1 µM [5] | remaining activity at 1 µM [6] | remaining activity at 1 µM [7] | remaining activity at 1 µM [8] | remaining activity at 1 µM [9] | remaining activity at 1 µM [10] | remaining activity at 1 µM [11] | remaining activity at 1 µM [12] | remaining activity at 1 µM [13] | remaining activity at 1 µM [14] | remaining activity at 1 µM [15] |
| --- | --- | --- | --- | --- | --- | --- | --- | --- | --- | --- | --- | --- | --- | --- | --- |
| CNC(=O)c1cccc(C)c1Nc1nc(Nc2ccc(N3CCN(C4C5CC6CC4CC(O)(C6)C5)CC3)cc2OC)ncc1C(F)(F)F (stereo not drawn) [SJP1602, 2-((2-((4-(4-((2s,5r)-5-hydroxyadamantan-2-yl)piperazin-1-yl)-2-methoxyphenyl)amino)-5-(trifluoromethyl)pyrimidin-4-yl)amino)-N,3-dimethylbenzamide] | 84% | 116% | 124% | 116% | 111% | 104% | 88% | 84% | 91% | 136% | 95% | 105% | 93% | 54% | 83% |
